Common to all, as to assay type: in vivo
For assay [1], the system named is Diabrotica balteata. Put plainly: Example B2: activity against Diabrotica balteata (corn root worm), maize sprouts. The note with it: 96 h, L2 larvae, 4 days after infestation, read-out: effect in at least one of the two categories (mortality or growth inhibition). The method, boiled down: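 At 200 ppm, test solutions diluted in water from 10′000 ppm DMSO stocks were spray-applied to maize sprouts set on agar. Once dry, each well received 6–10 second-instar larvae. Four days later, mortality and growth inhibition were compared with untreated controls.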

Assay [2] has as its system Plutella xylostella. Put plainly: B14b: Plutella xylostella (diamond back moth), larvicide L3, feeding/contact, Chinese cabbage. From the text: (§1) Activity of compounds P5, P17 and P21 according to the preparatory examples and of a compound from WO 21/083936 against Spodoptera littoralis (Example B6 above), Chilo suppressalis (Example B1 above), Diabrotica balteata (Example B14a below), Plutella xylostella (Example B14b below) and Pseudoplusia includens (Example B9 above) is summarized in Table B14. B14a: Diabrotica balteata (Corn root worm). Larvicide, feeding/contact 3 Corn seedlings were placed on wetted filter paper in plastic cups, and 3 ml of diluted test solutions were pipetted onto them. The cups were infested with 10 L2 larvae and checked for mortality and growth regulation 5 days after treatment. B14b: Plutella xylostella (Diamond back moth). Larvicide L3, feeding/contact Chinese cabbage plants were sprayed with diluted test solutions in an application chamber. Cut off leaves were placed into petri dishes with wetted filter paper and infested 1 day after application with 10 L3 larvae. Samples were assessed 4 days after infestation for mortality and growth regulation.

Assay [3] concerns Diabrotica balteata. In words: B14a: Diabrotica balteata (corn root worm), larvicide, feeding/contact, corn seedlings.
Source text: as §1

In assay [4] the test system is Myzus persicae. Put plainly: Example B7b: Myzus persicae feeding/contact activity, eggplant leaf discs. The note with it: foliar, 144 h, mixed ages, 6 days after infestation. The protocol: Eggplant leaf discs were placed onto agar in a 24-well microtiter plate and sprayed with aqueous test solutions prepared from 10′000 ppm DMSO stock solutions. After drying, the leaf discs were infested with an aphid population of mixed ages. The samples were assessed for mortality 6 days after infestation.

Assay [5] relates to Myzus persicae. Put plainly: Example B4: activity against Myzus persicae (green peach aphid), intrinsic activity. The note with it: 120 h, test rate 12 ppm, 5 days after infestation. In short, it runs like this: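 Mortality was read 5 days after infestation. Aphids on pea seedlings fed through a stretched Parafilm membrane on inverted 24-well plates containing sucrose solution mixed with test compound, which was diluted from 10′000 ppm DMSO stock.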

The subject of assay [6] is Pseudoplusia includens. Put plainly: Example B9: Pseudoplusia includens (soybean looper), larvicide, feeding/contact, soybean plants. As to conditions: Chrysodeixis includens; for percent effect (mortality or growth inhibition) at 50 ppm: 120 h, L2 larvae, 5 days after infestation, read-out: effect in at least one of the two categories (mortality or growth inhibition). The method, boiled down:
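Soybean plants sprayed, cut and held in dishes on wet filter paper; infested 1 d after application with 5 L2 larvae. Mortality and growth inhibition assessed 5 days after infestation; tested at 50 ppm.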

In assay [7] the test system is Chilo suppressalis. In words: Example B1: activity against Chilo suppressalis (striped rice stemborer), artificial diet. As to conditions: for percent control (mortality, anti-feedant effect or growth inhibition) at 200 ppm: 144 h, L2 larvae, 6 days after infestation, read-out: control (at least one of mortality, anti-feedant effect, growth inhibition). The method, boiled down:
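First, artificial diet was treated with aqueous solutions prepared from 10'000 ppm DMSO stocks; second, after drying, L2 larvae (6-8/well) were added; third, effects were assessed at 6 days against untreated controls, counting control when any of three categories was higher.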

The subject of assay [8] is Spodoptera littoralis. In words: Example B6: activity against Spodoptera littoralis (Egyptian cotton leaf worm), cotton leaf discs. As to conditions: foliar; for percent control (mortality, anti-feedant effect or growth inhibition) at 200 ppm: 72 h, L1 larvae, 3 days after infestation, read-out: control (at least one of mortality, anti-feedant effect, growth inhibition). The method, boiled down: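 Cotton leaf discs on agar were sprayed with aqueous test solutions made from 10′000 ppm DMSO stocks, dried, then infested with five L1 larvae. Mortality, anti-feeding effect and growth inhibition were scored against untreated discs 3 days after infestation; control means any category exceeds untreated.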

The subject of assay [9] is Plutella xylostella. Put plainly: Example B5: activity against Plutella xylostella (diamond back moth), artificial diet, eggs. The note with it: 192 h, 8 days after infestation, read-out: effect in at least one of the two categories (mortality or growth inhibition). The method, boiled down:
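Scoring at 8 days post-infestation compared mortality and growth inhibition with untreated controls, on diet treated at 200 ppm with water-diluted DMSO stock solutions. Diamondback moth eggs were placed on the dried diet in 24-well plates.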

Assay [10] concerns Carpocapsa (Cydia) pomonella. Put plainly: Example B10: Carpocapsa (Cydia) pomonella (codling moth), larvicide, feeding/contact, diet cubes. The note with it: 336 h, L1 larvae, 14 days after infestation, read-out: effect in at least one of the two categories (mortality or growth inhibition). As for the experimental part: Diet cubes coated with paraffin were sprayed with diluted test solutions in an application chamber. After drying off the treated cubes (10 replicates) were infested with 1 L1 larvae. Samples were incubated at 26-27° C. and checked 14 days after infestation for mortality and growth inhibition. The following compounds gave an effect of at least 80% in at least one of the two categories (mortality or growth inhibition) at an application rate of 50 ppm: […]

For assay [11], the system named is Tetranychus urticae. Put plainly: Example B8: activity against Tetranychus urticae (two-spotted spider mite), bean leaf discs. The note with it: foliar, 192 h, mixed population (mobile stages), 8 days after infestation. As for the experimental part: Bean leaf discs on agar in 24-well microtiter plates were sprayed with aqueous test solutions prepared from 10′000 ppm DMSO stock solutions. After drying the leaf discs were infested with a mite population of mixed ages. The samples were assessed for mortality on mixed population (mobile stages) 8 days after infestation.

For assay [12], the system named is Euschistus heros. In words: Example B3: activity against Euschistus heros (neotropical brown stink bug), soybean leaves. As to conditions: for percent effect (mortality or growth inhibition) at 200 ppm: 120 h, N2 nymphs, 5 days after infestation, read-out: effect in at least one of the two categories (mortality or growth inhibition). In short, it runs like this:
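Soybean leaves on agar sprayed with aqueous dilutions of DMSO stock (10′000 ppm), dried, then infested with N2 nymphs. Mortality and growth inhibition scored against untreated samples 5 days after infestation; application rate 200 ppm.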

Assay [13] deals with Myzus persicae. Put plainly: Example B7a: Myzus persicae feeding/contact activity, sunflower leaf discs. The note with it: foliar, 144 h, mixed ages, 6 days after infestation. As for the experimental part:
Sunflower leaf discs were placed onto agar in a 24-well microtiter plate and sprayed with aqueous test solutions prepared from 10′000 ppm DMSO stock solutions. After drying, the leaf discs were infested with an aphid population of mixed ages. The samples were assessed for mortality 6 days after infestation.

Some results are limits rather than exact numbers.

Results on 6 molecules are retold here after patent US20260132125A1, “PESTICIDALLY ACTIVE FUSED BICYCLIC HETEROAROMATIC COMPOUNDS” (priority 2022, published 2026).

The mortality is the share of the test organisms that died. Read a low mortality as more survivors.

For the molecule `C[C@H](Nc1ncnc2c(C(F)(F)F)cc(Cl)cc12)c1ncnn1-c1cnc(C(N)=O)cn1` [Compound P21, 5-[5-[(1S)-1-[[6-chloro-8-(trifluoromethyl)quinazolin-4-yl]amino]ethyl]-1,2,4-triazol-1-yl]pyrazine-2-carboxamide], the percent effect (mortality or growth inhibition) at 200 ppm in [1] and in assay [9] was ≥ 80% in each case. This molecule also gave a mortality at 3 ppm in assay [2] of 100%. In addition, the mortality at 0.8 ppm in [3] came out at 65%. Further, the mortality at 200 ppm in assay [4] was ≥ 80%. For the same molecule, the mortality at 12 ppm in assay [5] was ≥ 80%. Moreover, the percent effect (mortality or growth inhibition) at 50 ppm in assay [6] is ≥ 80%. This molecule also had a mortality at 12.5 ppm in assay [6] (Pseudoplusia includens) of 40%. The mortality at 3.12 ppm in [7] worked out at 0%; in assay [8] it was 100%. Further, the percent control (mortality, anti-feedant effect or growth inhibition) at 200 ppm in assay [7] and in [8] was ≥ 80% each time.

For `C[C@H](Nc1ncnc2c(Cl)cc(C(F)(F)F)cc12)c1ncnn1-c1cc(C(N)=O)ncn1` [Compound P17, 6-[5-[(1S)-1-[[8-chloro-6-(trifluoromethyl)quinazolin-4-yl]amino]ethyl]-1,2,4-triazol-1-yl]pyrimidine-4-carboxamide], the percent effect (mortality or growth inhibition) at 200 ppm in assay [1], in [9] and in assay [12] was ≥ 80% each time. Also, the mortality at 0.8 ppm in assay [2] and in assay [3] was 100% in each case. Also, the mortality at 3 ppm in assay [2] came out at 100%; in assay [6] (Pseudoplusia includens, 3 ppm), 80%. In assay [5], the mortality at 12 ppm is ≥ 80%. The percent effect (mortality or growth inhibition) at 50 ppm in assay [10] and in assay [6] was ≥ 80% each time. In assay [6] (Pseudoplusia includens), this molecule showed a mortality at 12.5 ppm of 100%. Besides, the mortality at 3.12 ppm in assay [7] came out at 40%; in assay [8], 100%. For the same molecule, the percent control (mortality, anti-feedant effect or growth inhibition) at 200 ppm in assay [7] and in [8] was ≥ 80% each time. The mortality at 200 ppm was ≥ 80% in assay [11] and 80% in assay [12].

With `C[C@H](Nc1ncnc2c(C(F)(F)F)cc(Cl)cc12)c1ncnn1-c1cc(C(N)=O)ncn1` [Compound P5, 6-[5-[(1S)-1-[[6-chloro-8-(trifluoromethyl)quinazolin-4-yl]amino]ethyl]-1,2,4-triazol-1-yl]pyrimidine-4-carboxamide], the percent effect (mortality or growth inhibition) at 200 ppm in assay [1], in [9] and in assay [12] was ≥ 80% each time. The mortality at 0.8 ppm in assay [2] was 95%; in assay [3], 100%; in [6] (Pseudoplusia includens, 0.8 ppm), 70%. For the same molecule, the mortality at 3 ppm in [2] was found to be 100%. The mortality at 12 ppm in assay [5] was ≥ 80%. Besides, the percent effect (mortality or growth inhibition) at 50 ppm in assay [6] was ≥ 80%. Further, the mortality at 12.5 ppm in assay [6] (Pseudoplusia includens) stood at 100%. Besides, the mortality at 3.12 ppm is 80% in assay [7] and 100% in assay [8]. Also, the percent control (mortality, anti-feedant effect or growth inhibition) at 200 ppm in assay [7] and in assay [8] was ≥ 80% each time. This molecule also came in with a mortality at 200 ppm in [12] of 100%.

For the molecule `C[C@@H](c1ncnn1-c1cc(C(N)=O)ncn1)N(C)c1ncnc2c(C(F)(F)F)cc(Cl)cc12` [Compound P50, 6-[5-[(1S)-1-[[6-chloro-8-(trifluoromethyl)quinazolin-4-yl]-methyl-amino]ethyl]-1,2,4-triazol-1-yl]pyrimidine-4-carboxamide], the percent effect (mortality or growth inhibition) at 200 ppm in assay [1], in [9] and in assay [12] was ≥ 80% each time. For the same molecule, the mortality at 200 ppm in assay [4] and in [11] was ≥ 80% in each case. Further, the mortality at 12 ppm in assay [5] was ≥ 80%. The percent effect (mortality or growth inhibition) at 50 ppm in assay [6] was ≥ 80%. Besides, the percent control (mortality, anti-feedant effect or growth inhibition) at 200 ppm in [7] and in [8] was ≥ 80% each time.

In [2], `C[C@H](Nc1ncnc2c(C(F)(F)F)cc(C(F)(F)F)cc12)c1ncnn1-c1ccc(C(N)=O)cn1` [WO 21/083936 P.157, reference compound] yielded a mortality at 3 ppm of 65%. The molecule also had a mortality at 0.8 ppm in [3] of 35%. In [6] (Pseudoplusia includens), the mortality at 12.5 ppm is 10%. In addition, the mortality at 3.12 ppm in [7] and in assay [8] was 0% throughout.

Consider `C[C@H](Nc1ncnc2c(I)cc(Cl)cc12)c1ncnn1-c1cc(C(N)=O)ncn1` [Compound P13, 6-[5-[(1S)-1-[(6-chloro-8-iodo-quinazolin-4-yl)amino]ethyl]-1,2,4-triazol-1-yl]pyrimidine-4-carboxamide], for which the percent effect (mortality or growth inhibition) at 200 ppm in assay [1] and in assay [9] was ≥ 80% each time. Moreover, the mortality at 12 ppm in assay [5] is ≥ 80%. Moreover, the mortality at 200 ppm in assay [13] and in [11] was ≥ 80% each time. Also, the percent effect (mortality or growth inhibition) at 50 ppm in assay [10] and in [6] was ≥ 80% throughout. Moreover, the percent control (mortality, anti-feedant effect or growth inhibition) at 200 ppm in [7] and in [8] was ≥ 80% in each case.
